Measured values from US12590093B2, “Indolo[2′,3′:3,4]pyrido[2,1-b]quinazoline compound and use thereof” (INSTITUTE OF MEDICINAL BIOTECHNOLOGY CHINESE ACADEMY OF …, priority 2019, dated 2026).

Legend:
Format in all cases: cell-based
SR-BI = SR-BI up-regulation, luciferase reporter in SR-BI-LUC HepG2 cells; conditions: Homo sapiens, 18 h, maximum up-regulation of luciferase activity versus DMSO, read-out: SR-BI max
Method: Experiments were conducted to detect whether the compounds of the disclosure can pharmacologically up-regulate the expression of ABCA1 and SR-BI. Firstly, ABCA1P-LUC HepG2 cells or SR-BI-LUC HepG2 cells in logarithmic growth phase were digested, diluted in cell culture medium, and counted. Cells were seeded into 96-well plates at a density of 5×10^5/ml (100 μL of the single-cell suspension per well). After cells fully adhered (about 6 h), the medium containing 10% FBS was removed, and the cells were gently washed with PBS. Serum free MEM-EBSS medium (200 μL per test well) and 2 μL of the compounds to be tested (at a final concentration of 10 μg/mL) were added to each test well, and meanwhile, DMSO at a corresponding concentration was added to the control well. After 18-24 h, the medium was removed. Cell Luciferase activity was measured by a method as described in the Luciferase Assay System. By optimizing the final concentration of DMSO, the treatment time of the compounds on the cells and the number of cells seeded into each well during the screening, the final screening conditions were determined as follows: each well is seeded with 5×10^4 cells, DMSO is added at a final concentration of 1%, and the sample is treated for 18 h.
The ratio of change of luciferase activity is calculated with the following formula: Ratio of change (%)=A/B×100;
wherein A is the luciferase activity (RLU) measured after the compound to be tested is added, and B is the luciferase activity (RLU) measured after the blank control (DMSO) is added. The luciferase activity of cells in each well was measured, and the dose-effect relationship between the concentration of the compound and the ratio of change of the luciferase activity was determined to calculate the EC50.

PPARα = biological target: T1, PPARα (Homo sapiens, UniProt Q07869); assay: Nuclear receptor reporter gene transient transfection (pBIND-hPPARs-LBD) in HepG2 cells, PPARα; conditions: FIG. 2, result in words
T1 construct: expressed in transfected cells; host or cells: HepG2
T1 sequence (Q07869 239-466 limits assumed): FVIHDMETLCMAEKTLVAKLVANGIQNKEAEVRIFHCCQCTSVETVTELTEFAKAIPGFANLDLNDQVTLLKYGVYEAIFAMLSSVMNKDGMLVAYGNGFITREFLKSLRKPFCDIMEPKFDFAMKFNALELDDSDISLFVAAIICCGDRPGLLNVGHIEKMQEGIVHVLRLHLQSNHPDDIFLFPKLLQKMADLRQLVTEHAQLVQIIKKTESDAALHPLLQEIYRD
Method: (§1) HepG2 cells in logarithmic growth phase were digested, seeded into the white/clear 96-well plate at a density of 5×10^4 cells/well/100 μL until the cells grew to about 90% confluence and in good condition. 0.5 μL liposome (Lipofectamine® 2000) diluted with blank medium to 25 μL per well and incubated at room temperature for 5 min. The corresponding plasmids DNA (nuclear receptor plasmid:Gal4=1:10) were diluted in blank DMEM medium to 25 μL/well (mixing of two plasmids), then mixed evenly with the diluted liposome, and incubated for 20 min at 37° C. The DNA-liposome complex (50 μL per well) was added with the DMEM complete medium (100 μL per well) and mixed thoroughly to obtain a DNA-liposome complex cell culture. The cell medium was discarded, and replaced with the DNA-liposome complex cell culture (150 μL/well) (37° C., 5% CO2). After 6 h, the DNA-liposome complex cell culture medium was discarded, and 200 μL serum-free DMEM medium containing the compound at an appropriate concentration was added to each test well, and cultured for 18-24 h. The cell Luciferase activity was measured by the method as described in the Luciferase Assay System.

PPARγ = biological target: T2, PPARγ (Homo sapiens, UniProt P37231); assay: Nuclear receptor reporter gene transient transfection (pBIND-hPPARs-LBD) in HepG2 cells, PPARγ; conditions: FIG. 2, result in words
T2 construct: expressed in transfected cells; host or cells: HepG2
T2 sequence (P37231 238-503 limits assumed): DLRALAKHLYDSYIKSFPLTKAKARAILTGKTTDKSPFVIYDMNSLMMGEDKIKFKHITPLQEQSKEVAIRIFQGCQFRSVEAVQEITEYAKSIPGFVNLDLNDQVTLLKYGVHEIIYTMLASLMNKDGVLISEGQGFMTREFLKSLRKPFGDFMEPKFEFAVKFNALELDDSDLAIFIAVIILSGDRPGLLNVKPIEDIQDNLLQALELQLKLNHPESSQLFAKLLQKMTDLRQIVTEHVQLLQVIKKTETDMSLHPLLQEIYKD
Method: as §1

PPARδ = biological target: T3, PPARδ (Homo sapiens, UniProt Q03181); assay: Nuclear receptor reporter gene transient transfection (pBIND-hPPARs-LBD) in HepG2 cells, PPARδ; conditions: FIG. 2, result in words
T3 construct: expressed in transfected cells; host or cells: HepG2
T3 sequence (Q03181 211-439 limits assumed): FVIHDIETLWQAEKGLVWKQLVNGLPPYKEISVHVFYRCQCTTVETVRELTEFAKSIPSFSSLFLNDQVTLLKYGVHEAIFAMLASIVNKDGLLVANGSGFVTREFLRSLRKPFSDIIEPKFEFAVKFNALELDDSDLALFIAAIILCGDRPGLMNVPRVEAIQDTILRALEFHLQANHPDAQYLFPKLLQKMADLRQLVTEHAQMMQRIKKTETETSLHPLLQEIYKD
Method: as §1

NLRP3 inflammasome = NLRP3 inflammasome in J774A.1 cells with MAPK agonist Anisomycin; conditions: MAPK signaling pathway agonist Anisomycin added, FIG. 9
Source text: When animal tissues were used to prepare protein samples, the tissues were firstly homogenized and lysed in the RIPA lysis buffer. The subsequent steps were the same as those for preparing protein samples from cells. When cell supernatants were used to prepare protein samples, the supernatants were freeze-dried, needed to be extracted using a protein recovery kit (Applygen, Beijing, China), and then analyzed by western-blot.
After that, the MAPK signaling pathway agonist Anisomycin and TR3 were added into J774A-1 cells.

ABCA1 = ABCA1 up-regulation, luciferase reporter in ABCA1P-LUC HepG2 cells; conditions: co-incubated with MK886, GW9662, GSK3787 or GGPP

c1ccc2c(c1)CN1CCc3c([nH]c4ccccc34)C1=N2 [TR3, 5,7,8,13-tetrahydroindolo[2′,3′:3,4]pyrido[2,1-b]quinazoline]
maximal fold induction (SR-BI): 2.07
activation of PPARα (PPARα): simultaneously activated PPARα/γ/δ and LXRα/β to a certain extent
activation of PPARγ (PPARγ): simultaneously activated PPARα/γ/δ and LXRα/β to a certain extent
activation of PPARδ (PPARδ): simultaneously activated PPARα/γ/δ and LXRα/β to a certain extent
inhibitory effect on NLRP3, Caspase-1 and IL-1β with Anisomycin added (NLRP3 inflammasome): reduced
up-regulating transcription activity of ABCA1 when co-incubated with nuclear receptor inhibitor (ABCA1): significantly inhibited
